Where a name gives a salt, the structure may show the parent alone.
Legend:
[1] = test system: EGF, HIF responsive cell line (HIF-responsive reporter gene); assay: reporter gene assay in EGF, HIF responsive cancer cell line; format: cell-based; conditions: for effect on regulated reporter gene expression (screen): single agents, screen of thousands of compounds
Protocol: (§1) Cancer cell lines (Panc1, for pancreatic cancer, and A549 for non-small cell lung carcinoma) were transfected with the construct depicted in FIG. 1. The retroviral vector contained a […] gene (a negative selection marker), a zeocin resistance marker (a positive selection marker) and a gene encoding beta-galactosidase “β-gal”, as a reporter gene.
(§2) Cells were grown to a significant cell density and exposed to zeocin, so as to select for cells expressing the zeocin marker in the presence of high levels of extracellular signaling. […] Under these conditions, cells were exposed to an agent such as ganciclovir that causes lethality in TK+ cells. This selection step eliminated those cells containing a nucleic acid construct that is expressed at significant levels even in low extracellular signaling conditions. The resulting cells were then used for further study.
An EGF, HIF responsive cell line was screened for compounds affecting the regulated gene expression. Thousands of compounds were screened.

[2] = test system: EGF-responsive gene expression; assay: EGF-responsive gene expression in recovered reporter cell lines; format: cell-based
Protocol: as §1
as §2, with “signaling. Cells were also exposed to a growth factor, such as EGF, insulin or IGF, although in some instances, the growth factor had only minor effects on gene expression compared to the generalized effect of extracellular signaling. The selected cell cultures were greatly depleted of cells by zeocin treatment, as the vast majority of cells were eliminated by the zeocin.” for “signaling.”
FIGS. 3 through 9 depict the results from a series of experiments characterizing the recovered cell lines. […]

[3] = test system: LnCap/Prostate; assay: anti-proliferative effect, LnCap prostate cancer cell line; format: cell-based; conditions: Homo sapiens
Description: (§3) The inhibition of reporter activity was later correlated with an anti-proliferative effect in representative colon, lung, prostate, cervical, renal, uterine, breast, and pancreatic cancer cell lines as shown in table 1.

[4] = test system: MES-SA-DX5/Uterine; assay: anti-proliferative effect, MES-SA-DX5 uterine cancer cell line; format: cell-based; conditions: Homo sapiens
Description: as §3

[5] = test system: MES-SA/Uterine; assay: anti-proliferative effect, MES-SA uterine cancer cell line; format: cell-based; conditions: Homo sapiens
Description: as §3

[6] = test system: C-33A/Cervical; assay: anti-proliferative effect, C-33A cervical cancer cell line; format: cell-based; conditions: Homo sapiens
Description: as §3

[7] = test system: HT-29/Colon; assay: anti-proliferative effect, HT-29 colon cancer cell line; format: cell-based; conditions: Homo sapiens
Description: as §3
The ouabain concentration required to achieve an antiproliferative effect in cells of the HT29 colon cancer cell line (FIG. 20) is decreased five-fold in the presence of bicalutamide (Casodex).

[8] = test system: HCT-116/Colon; assay: anti-proliferative effect, HCT-116 colon cancer cell line; format: cell-based; conditions: Homo sapiens
Description: as §3

[9] = test system: PC3/Prostate; assay: anti-proliferative effect, PC3 prostate cancer cell line; format: cell-based
Description: as §3

[10] = test system: SK-MES/Lung; assay: anti-proliferative effect, SK-MES lung cancer cell line; format: cell-based
Description: as §3

[11] = test system: MCF-7/Breast; assay: anti-proliferative effect, MCF-7 breast cancer cell line; format: cell-based; conditions: Homo sapiens, MCF7
Description: as §3

[12] = test system: A549/Lung; assay: anti-proliferative effect, A549 lung cancer cell line; format: cell-based; conditions: Homo sapiens
Description: as §3

[13] = test system: several different cancer cell lines; assay: proliferation of cancer cell lines (several lines, summary); format: cell-based; conditions: range over cell lines, read-out: IC50 across several different cancer cell lines
Protocol: The IC50 measured for ouabain across several different cancer cell lines ranged from about 80 nM to about 300 nM. The concentration at which a cardiac glycoside is effective as part of an antiproliferative treatment may be further decreased by combination with an additional agent that negatively regulates HIF-responsive genes, such as a redox effector or a steroid signal modulator. For example, as shown herein, the concentration at which a cardiac glycoside (ouabain) is effective for inhibiting proliferation of cancer cells is decreased 5-fold by combination with a steroid signal modulator (Casodex). Therefore, in certain embodiments, the invention provides combination therapies of cardiac glycosides with, for example, steroid signal modulators and/or redox effectors. Additionally, cardiac glycosides may be combined with radiation therapy, taking advantage of the radiosensitizing effect that many cardiac glycosides have.

[14] = test system: Panc-1; assay: anti-proliferative effect, Panc-1 pancreatic cancer cell line; format: cell-based; conditions: Homo sapiens; Panc-1, anti-proliferative
Description: as §3

[15] = test system: DU-145/Prostate; assay: anti-proliferative effect, DU-145 prostate cancer cell line; format: cell-based; conditions: Homo sapiens
Description: as §3

[16] = test system: Caki-1/Renal; assay: anti-proliferative effect, Caki-1 renal cancer cell line; format: cell-based; conditions: Homo sapiens
Description: as §3

[17] = test system: HIF-2α protein; assay: level of HIF-2α protein in cancer cells; format: cell-based
[18] = serum half-life

C/C=C(/C(=C/C)c1ccc(O)cc1)c1ccc(O)cc1 [dienestrol]
effect on regulated reporter gene expression (screen) [1]: effective

CCCCC(CC)CNC(=N)NC(=N)NCCCCCCNC(=N)NC(=N)NCC(CC)CCCC (stereo not drawn) [alexidine dihydrochloride]
effect on regulated reporter gene expression (screen) [1]: effective

CC/C(=C(/CC)c1ccc(O)cc1)c1ccc(O)cc1 [diethylstilbestrol]
effect on regulated reporter gene expression (screen) [1]: effective

C[C@H]1O[C@@H](O[C@H]2[C@@H](O)C[C@H](O[C@H]3[C@@H](O)C[C@H](O[C@H]4CC[C@@]5(C)[C@H](CC[C@@H]6[C@@H]5C[C@@H](O)[C@]5(C)[C@@H](C7=CC(=O)OC7)CC[C@]65O)C4)O[C@@H]3C)O[C@@H]2C)C[C@H](O)[C@@H]1O [digoxin]
effect on regulated reporter gene expression (screen) [1]: effective

Clc1ccccc1C(c1ccccc1)(c1ccccc1)n1ccnc1 [clotrimazole]
effect on regulated reporter gene expression (screen) [1]: effective

COc1cc2ncnc(Nc3ccc(F)c(Cl)c3)c2cc1OCCCN1CCOCC1 [Iressa]
EGF-responsive gene expression [2]: inhibited

C[C@@H]1O[C@@H](O[C@H]2C[C@@H](O)[C@]3(CO)[C@H]4[C@H](O)C[C@]5(C)[C@@H](C6=CC(=O)OC6)CC[C@]5(O)[C@@H]4CC[C@]3(O)C2)[C@H](O)[C@H](O)[C@H]1O [Ouabain, ouabain]
IC50 [3]: 150 nM | IC50 [4]: 80 nM | IC50 [5]: 80 nM | IC50 [6]: 100 nM | IC50 [7]: > 800 nM | IC50 [8]: 150 nM | IC50 [9]: 150 nM | required dose for inhibition of reporter activity relative to cardiotonic dose [1]: well below the dose required for ouabain as a cardiotonic agent | effect on regulated reporter gene expression (screen) [1]: effective | IC50 [10]: 100 nM | IC50 [11]: 100 nM | IC50 [12]: 300 nM | IC50 [13]: 80 to 300 nM | IC50 [14]: 150 nM | IC50 [15]: 300 nM | IC50 [16]: 150 nM

C[C@]12CC[C@H](O)C[C@H]1CC[C@@H]1[C@@H]2CC[C@]2(C)[C@@H](C3=CC(=O)OC3)CC[C@]12O [digitoxigenin]
effect on regulated reporter gene expression (screen) [1]: effective

CC(=O)O[C@H]1C[C@H](O[C@H]2[C@@H](O)C[C@H](O[C@H]3[C@@H](O)C[C@H](O[C@H]4CC[C@@]5(C)[C@H](CC[C@@H]6[C@@H]5C[C@@H](O)[C@]5(C)[C@@H](C7=CC(=O)OC7)CC[C@]65O)C4)O[C@@H]3C)O[C@@H]2C)O[C@H](C)[C@H]1O[C@@H]1O[C@H](CO)[C@@H](O)[C@H](O)[C@H]1O [lanatoside C]
effect on regulated reporter gene expression (screen) [1]: effective

Clc1ccc(COC(Cn2ccnc2)c2ccc(Cl)cc2Cl)cc1 (stereo not drawn) [econazole nitrate]
effect on regulated reporter gene expression (screen) [1]: effective

CC(C)/N=c1\cc2n(-c3ccc(Cl)cc3)c3ccccc3nc-2cc1Nc1ccc(Cl)cc1 [clofazimine]
effect on regulated reporter gene expression (screen) [1]: effective

CC1=CC(=O)c2ccccc2C1=O [menadione]
effect on regulated reporter gene expression (screen) [1]: effective

CCCC(C(=O)OCCN(CC)CC)(c1ccccc1)c1ccccc1 [proadifen hydrochloride]
effect on regulated reporter gene expression (screen) [1]: effective

OC(c1cc(C(F)(F)F)nc2c(C(F)(F)F)cccc12)C1CCCCN1 (stereo not drawn) [mefloquine hydrochloride]
effect on regulated reporter gene expression (screen) [1]: effective

O=C(Nc1ccc([N+](=O)[O-])cc1Cl)c1cc(Cl)ccc1O [Niclosamide, niclosamide]
IC50 [3]: 2000 nM | IC50 [4]: 6000 nM | IC50 [5]: 9000 nM | IC50 [6]: 5000 nM | IC50 [7]: 8000 nM | IC50 [8]: 800 nM | level of HIF-2α protein [17]: decrease | serum half-life [18]: short | IC50 [9]: 5000 nM | effect on regulated reporter gene expression (screen) [1]: effective | IC50 [10]: 2000 nM | IC50 [11]: 2500 nM | IC50 [12]: 1500 nM | IC50 [14]: 5000 nM | IC50 [15]: 5000 nM | IC50 [16]: 1500 nM

Source: patent US20050250709A1, “Anti-neoplastic agents, combination therapies and related methods” (Bionaut Pharmaceuticals, priority 2003, published 2005)
